# Measurements taken from patent US12410208B2, “(2-acetamidyl)thio-beta-D-galactopyranoside derivatives” (Idorsia Pharmaceuticals Ltd, priority 2020, dated 2025).
# Like-named read-outs stand apart in the source and are kept apart here.
# Key:
# human Gal-1 (hGal-1) = human Gal-1 (hGal-1) (Homo sapiens, UniProt P09382); test: Competitive binding assay: biotinylated hGal-1 binding to microplate-adsorbed asialofetuin (ASF), spectrophotometric; conditions: hGal-1 binding to asialofetuin; Table 15; R and S epimers of selected Examples also listed; read-out: IC50 (Galectin-1 inhibition)
# Procedure, shortened: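 Biotinylated hGal-1 (300-1000 ng/mL) incubated with compound on asialofetuin-coated plates 3 hours at 4 °C, washed, then streptavidin-peroxidase (80 ng/mL) 1 hour at 4 °C. ABTS substrate read spectrophotometrically; IC50 reported as mean of several measurements.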
# [1] = molecular target: biotinylated human Gal-3 (hGal-3) (Homo sapiens, UniProt P17931); test: Competitive binding assay: biotinylated hGal-3 binding to microplate-adsorbed asialofetuin (ASF), spectrophotometric
# Procedure, shortened: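 Competitive binding of biotinylated hGal-3 to plate-adsorbed asialofetuin was measured with serially diluted compounds over 3 h at 4° C. Bound protein was detected with streptavidin-peroxidase and ABTS substrate by absorbance. IC50 values are means of several measurements.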
# [2] = Gal-3 inhibition, Table 5, read-out: IC50
# [3] = Table 12, hGal-3, read-out: IC50 (Gal-3 inhibition)
# [4] = Table 10, hGal-3, read-out: IC50 (Gal-3 inhibition)
# Chain of biotinylated human Gal-3 (hGal-3) (P17931 whole entry): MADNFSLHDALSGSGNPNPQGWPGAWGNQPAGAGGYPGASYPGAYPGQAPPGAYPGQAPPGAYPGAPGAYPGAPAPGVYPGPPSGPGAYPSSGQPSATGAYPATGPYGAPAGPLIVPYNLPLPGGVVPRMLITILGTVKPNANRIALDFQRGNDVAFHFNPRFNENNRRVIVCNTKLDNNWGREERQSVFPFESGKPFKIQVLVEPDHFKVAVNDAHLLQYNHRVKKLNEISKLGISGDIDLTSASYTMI
# Chain of human Gal-1 (hGal-1) (P09382 whole entry): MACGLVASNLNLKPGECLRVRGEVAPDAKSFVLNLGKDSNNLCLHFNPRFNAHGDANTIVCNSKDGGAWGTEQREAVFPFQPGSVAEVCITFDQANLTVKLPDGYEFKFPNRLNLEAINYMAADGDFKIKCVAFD
SMILES,IC50 (human Gal-1 (hGal-1)),"IC50 [1, 2]","IC50 [1, 3]","IC50 ([1]; Gal-3 inhibition, Table 14, read-out: IC50)","IC50 [1, 4]"
"CN(CCC(C)(C)C)C(=O)C(S[C@@H]1O[C@H](CO)[C@H](O)[C@H](n2cc(-c3cc(F)c(F)c(F)c3)nn2)[C@H]1O)C1(O)CCC(F)(F)CC1 (stereo partly drawn) [Example 2.44.225., 2-(4,4-Difluoro-1-hydroxycyclohexyl)-2-(((2S,3R,4S,5R,6R)-3,5-dihydroxy-6-(hydroxymethyl)-4-(4-(3,4,5-trifluorophenyl)-1H-1,2,3-triazol-1-yl)tetrahydro-2H-pyran-2-yl)thio)-N-(3,3-dimethylbutyl)-N-methylacetamide]",150 nM,70 nM,,,
"CO[C@@H]1[C@@H](n2cc(-c3cc(F)c(F)c(F)c3)nn2)[C@@H](O)[C@@H](CO)O[C@H]1SC(C(=O)N(C)CCC(C)(C)C)C1(O)CCC(F)(F)CC1 (stereo partly drawn) [Example 2.44.225.I., 2-(4,4-Difluoro-1-hydroxycyclohexyl)-N-(3,3-dimethylbutyl)-2-(((2S,3R,4S,5R,6R)-5-hydroxy-6-(hydroxymethyl)-3-methoxy-4-(4-(3,4,5-trifluorophenyl)-1H-1,2,3-triazol-1-yl)tetrahydro-2H-pyran-2-yl)thio)-N-methylacetamide]",120 nM,,100 nM,,
"O=C(C(S[C@@H]1O[C@H](CO)[C@H](O)[C@H](n2cc(-c3cc(F)c(F)c(F)c3)nn2)[C@H]1O)C1(O)CCC(F)(F)CC1)N1CCC(F)(F)CC1 (stereo partly drawn) [Example 2.44.226., 2-(4,4-Difluoro-1-hydroxycyclohexyl)-1-(4,4-difluoropiperidin-1-yl)-2-(((2S,3R,4S,5R,6R)-3,5-dihydroxy-6-(hydroxymethyl)-4-(4-(3,4,5-trifluorophenyl)-1H-1,2,3-triazol-1-yl)tetrahydro-2H-pyran-2-yl)thio)ethan-1-one]",110 nM,90 nM,,,
"CCO[C@@H]1[C@@H](n2cc(-c3cc(F)c(F)c(F)c3)nn2)[C@@H](O)[C@@H](CO)O[C@H]1SC(C(=O)N1CCC(F)(F)CC1)C1(O)CCC(F)(F)CC1 (stereo partly drawn) [Example 2.44.226.II., 2-(4,4-Difluoro-1-hydroxycyclohexyl)-1-(4,4-difluoropiperidin-1-yl)-2-(((2S,3R,4S,5R,6R)-3-ethoxy-5-hydroxy-6-(hydroxymethyl)-4-(4-(3,4,5-trifluorophenyl)-1H-1,2,3-triazol-1-yl)tetrahydro-2H-pyran-2-yl)thio)ethan-1-one]",100 nM,,,100 nM,
"CO[C@@H]1[C@@H](n2cc(-c3cc(F)c(F)c(F)c3)nn2)[C@@H](O)[C@@H](CO)O[C@H]1S[C@@H](C(=O)N1CCC(F)(F)CC1)C1(O)CCC(F)(F)CC1 [Example 2.44.226R.I., (R)-2-(4,4-difluoro-1-hydroxycyclohexyl)-1-(4,4-difluoropiperidin-1-yl)-2-(((2S,3R,4S,5R,6R)-5-hydroxy-6-(hydroxymethyl)-3-methoxy-4-(4-(3,4,5-trifluorophenyl)-1H-1,2,3-triazol-1-yl)tetrahydro-2H-pyran-2-yl)thio)ethan-1-one]",5730 nM,,890 nM,,
"CO[C@@H]1[C@@H](n2cc(-c3cc(F)c(F)c(F)c3)nn2)[C@@H](O)[C@@H](CO)O[C@H]1S[C@H](C(=O)N1CCC(F)(F)CC1)C1(O)CCC(F)(F)CC1 [Example 2.44.226S.I., (S)-2-(4,4-difluoro-1-hydroxycyclohexyl)-1-(4,4-difluoropiperidin-1-yl)-2-(((2S,3R,4S,5R,6R)-5-hydroxy-6-(hydroxymethyl)-3-methoxy-4-(4-(3,4,5-trifluorophenyl)-1H-1,2,3-triazol-1-yl)tetrahydro-2H-pyran-2-yl)thio)ethan-1-one]",70 nM,,50 nM,,
"O=C([C@H](S[C@@H]1O[C@H](CO)[C@H](O)[C@H](n2cc(-c3cc(F)c(F)c(F)c3)nn2)[C@H]1O)C1(O)CCC(F)(F)CC1)N1CC(F)(F)C1 [Example 2.44.227R., (R)-2-(4,4-Difluoro-1-hydroxycyclohexyl)-1-(3,3-difluoroazetidin-1-yl)-2-(((2S,3R,4S,5R,6R)-3,5-dihydroxy-6-(hydroxymethyl)-4-(4-(3,4,5-trifluorophenyl)-1H-1,2,3-triazol-1-yl)tetrahydro-2H-pyran-2-yl)thio)ethan-1-one]",5130 nM,1050 nM,,,
"O=C([C@@H](S[C@@H]1O[C@H](CO)[C@H](O)[C@H](n2cc(-c3cc(F)c(F)c(F)c3)nn2)[C@H]1O)C1(O)CCC(F)(F)CC1)N1CC(F)(F)C1 [Example 2.44.227S., (S)-2-(4,4-Difluoro-1-hydroxycyclohexyl)-1-(3,3-difluoroazetidin-1-yl)-2-(((2S,3R,4S,5R,6R)-3,5-dihydroxy-6-(hydroxymethyl)-4-(4-(3,4,5-trifluorophenyl)-1H-1,2,3-triazol-1-yl)tetrahydro-2H-pyran-2-yl)thio)ethan-1-one]",230 nM,100 nM,,,
CCN(C(=O)[C@H](S[C@@H]1O[C@H](CO)[C@H](O)[C@H](n2cc(-c3cc(F)c(F)c(F)c3)nn2)[C@H]1OC)C1(O)CCC(F)(F)CC1)C1CC1 [Example 2.44.238R.I.],> 100000 nM,,,,1000 nM
CCN(C(=O)[C@@H](S[C@@H]1O[C@H](CO)[C@H](O)[C@H](n2cc(-c3cc(F)c(F)c(F)c3)nn2)[C@H]1OC)C1(O)CCC(F)(F)CC1)C1CC1 [Example 2.44.238S.I.],30 nM,,,,20 nM
CCN(CC1CC1)C(=O)C(S[C@@H]1O[C@H](CO)[C@H](O)[C@H](n2cc(-c3cc(F)c(F)c(F)c3)nn2)[C@H]1OC)C1(O)CCC(F)(F)CC1 (stereo partly drawn) [Example 2.44.239.I.],20 nM,,,,40 nM
CCN(Cc1ccccc1)C(=O)C(S[C@@H]1O[C@H](CO)[C@H](O)[C@H](n2cc(-c3cc(F)c(F)c(F)c3)nn2)[C@H]1OC)C1(O)CCC(F)(F)CC1 (stereo partly drawn) [Example 2.44.240.I.],280 nM,,,,40 nM
"CO[C@@H]1[C@@H](n2cc(-c3cc(F)c(F)c(F)c3)nn2)[C@@H](O)[C@@H](CO)O[C@H]1SC(C(=O)N(C)CC(F)(F)F)C1(O)CCC(F)(F)CC1 (stereo partly drawn) [Example 2.44.241.I., 2-(4,4-Difluoro-1-hydroxycyclohexyl)-2-(((2S,3R,4S,5R,6R)-5-hydroxy-6-(hydroxymethyl)-3-methoxy-4-(4-(3,4,5-trifluorophenyl)-1H-1,2,3-triazol-1-yl)tetrahydro-2H-pyran-2-yl)thio)-N-methyl-N-(2,2,2-trifluoroethyl)acetamide]",650 nM,,180 nM,,
"CO[C@@H]1[C@@H](n2cc(-c3cc(F)c(F)c(F)c3)nn2)[C@@H](O)[C@@H](CO)O[C@H]1SC(C(=O)N(C)C(C)C)C1(O)CCC(F)(F)CC1 (stereo partly drawn) [Example 2.44.242.I., 2-(4,4-Difluoro-1-hydroxycyclohexyl)-2-(((2S,3R,4S,5R,6R)-5-hydroxy-6-(hydroxymethyl)-3-methoxy-4-(4-(3,4,5-trifluorophenyl)-1H-1,2,3-triazol-1-yl)tetrahydro-2H-pyran-2-yl)thio)-N-isopropyl-N-methylacetamide]",110 nM,,80 nM,,
"CO[C@@H]1[C@@H](n2cc(-c3cc(F)c(F)c(F)c3)nn2)[C@@H](O)[C@@H](CO)O[C@H]1SC(C(=O)N(C)C1COC1)C1(O)CCC(F)(F)CC1 (stereo partly drawn) [Example 2.44.243.I., 2-(4,4-Difluoro-1-hydroxycyclohexyl)-2-(((2S,3R,4S,5R,6R)-5-hydroxy-6-(hydroxymethyl)-3-methoxy-4-(4-(3,4,5-trifluorophenyl)-1H-1,2,3-triazol-1-yl)tetrahydro-2H-pyran-2-yl)thio)-N-methyl-N-(oxetan-3-yl)acetamide]",170 nM,,110 nM,,
